In PubChem BioAssay (NCI):
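Interpolation was linear, between the two tested concentrations surrounding the appropriate level; five concentrations were tested over 48 hours in 96-well plates. TGI: concentration producing complete growth inhibition.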

How the values were obtained:
Assay in all cases: NCI tumour cell line growth inhibition, 48 h
SF-295 CNS = tested on: SF-295 CNS
SK-MEL-5 melanoma = tested on: SK-MEL-5 melanoma
SR leukemia = tested on: SR leukemia
CCRF-CEM leukemia = tested on: CCRF-CEM leukemia
HCT-15 colon = tested on: HCT-15 colon
A498 renal = tested on: A498 renal
SK-MEL-2 melanoma = tested on: SK-MEL-2 melanoma
RXF 393 renal = tested on: RXF 393 renal
UACC-62 melanoma = tested on: UACC-62 melanoma
BT-549 breast = tested on: BT-549 breast
NCI-H23 lung = tested on: NCI-H23 lung
MDA-MB-231 breast = tested on: MDA-MB-231 breast
HT29 colon = tested on: HT29 colon
HOP-62 NSCLC = tested on: HOP-62 NSCLC
IGROV1 ovarian = tested on: IGROV1 ovarian
DU-145 prostate = tested on: DU-145 prostate
MALME-3M melanoma = tested on: MALME-3M melanoma
SK-OV-3 ovarian = tested on: SK-OV-3 ovarian
ACHN renal = tested on: ACHN renal
K-562 leukemia = tested on: K-562 leukemia
OVCAR-5 ovarian = tested on: OVCAR-5 ovarian
NCI-H226 lung = tested on: NCI-H226 lung
OVCAR-3 ovarian = tested on: OVCAR-3 ovarian
OVCAR-4 ovarian = tested on: OVCAR-4 ovarian
M14 melanoma = tested on: M14 melanoma
SNB-19 CNS = tested on: SNB-19 CNS
MCF7 breast = tested on: MCF7 breast
NCI-H522 lung = tested on: NCI-H522 lung
SN12C renal = tested on: SN12C renal
SK-MEL-28 melanoma = tested on: SK-MEL-28 melanoma
PC-3 prostate = tested on: PC-3 prostate
MDA-MB-435 = tested on: MDA-MB-435
786-0 renal = tested on: 786-0 renal
SF-268 CNS = tested on: SF-268 CNS
HCC-2998 colon = tested on: HCC-2998 colon
A549 NSCLC = tested on: A549 NSCLC
CAKI-1 renal = tested on: CAKI-1 renal
EKVX NSCLC = tested on: EKVX NSCLC
UACC-257 melanoma = tested on: UACC-257 melanoma
HCT-116 colon = tested on: HCT-116 colon
MDA-N = tested on: MDA-N
NCI-H460 lung = tested on: NCI-H460 lung
SW-620 colon = tested on: SW-620 colon
NCI/ADR-RES ovarian = tested on: NCI/ADR-RES ovarian
RPMI-8226 leukemia = tested on: RPMI-8226 leukemia
TK-10 renal = tested on: TK-10 renal
T-47D breast = tested on: T-47D breast
HOP-92 NSCLC = tested on: HOP-92 NSCLC
MOLT-4 leukemia = tested on: MOLT-4 leukemia
UO-31 renal = tested on: UO-31 renal
SF-539 CNS = tested on: SF-539 CNS
OVCAR-8 ovarian = tested on: OVCAR-8 ovarian
LOX IMVI melanoma = tested on: LOX IMVI melanoma
COLO 205 colon = tested on: COLO 205 colon
U251 CNS = tested on: U251 CNS
HL-60(TB) leukemia = tested on: HL-60(TB) leukemia
SNB-75 CNS = tested on: SNB-75 CNS
KM12 colon = tested on: KM12 colon
HS 578T breast = tested on: HS 578T breast

COc1cccc2c(Nc3ccc(S(=O)(=O)N=C(N)N)cc3)c3ccc([N+](=O)[O-])cc3nc12
TGI (SF-295 CNS): > 100 µM | TGI (SK-MEL-5 melanoma): 45.5 µM | TGI (SR leukemia): 70.7 µM | TGI (CCRF-CEM leukemia): 31.6 µM | TGI (HCT-15 colon): > 100 µM | TGI (A498 renal): 44.9 µM | TGI (SK-MEL-2 melanoma): 37.6 µM | TGI (RXF 393 renal): > 100 µM | TGI (UACC-62 melanoma): 32.8 µM | TGI (BT-549 breast): 46.1 µM | TGI (NCI-H23 lung): 52.3 µM | TGI (MDA-MB-231 breast): 18 µM | TGI (HT29 colon): > 100 µM | TGI (HOP-62 NSCLC): 64.3 µM | TGI (IGROV1 ovarian): 31.4 µM | TGI (DU-145 prostate): > 100 µM | TGI (MALME-3M melanoma): 31.4 µM | TGI (SK-OV-3 ovarian): > 100 µM | TGI (ACHN renal): 31.9 µM | TGI (K-562 leukemia): > 100 µM | TGI (OVCAR-5 ovarian): > 100 µM | TGI (NCI-H226 lung): > 100 µM | TGI (OVCAR-3 ovarian): > 100 µM | TGI (OVCAR-4 ovarian): > 100 µM | TGI (M14 melanoma): > 100 µM | TGI (SNB-19 CNS): > 100 µM | TGI (MCF7 breast): > 100 µM | TGI (NCI-H522 lung): 36.5 µM | TGI (SN12C renal): > 100 µM | TGI (SK-MEL-28 melanoma): > 100 µM | TGI (PC-3 prostate): > 100 µM | TGI (MDA-MB-435): > 100 µM | TGI (786-0 renal): 46.7 µM | TGI (SF-268 CNS): > 100 µM | TGI (HCC-2998 colon): 87.2 µM | TGI (A549 NSCLC): > 100 µM | TGI (CAKI-1 renal): 32.1 µM | TGI (EKVX NSCLC): > 100 µM | TGI (UACC-257 melanoma): 56.1 µM | TGI (HCT-116 colon): > 100 µM | TGI (MDA-N): 61.1 µM | TGI (NCI-H460 lung): > 100 µM | TGI (SW-620 colon): > 100 µM | TGI (NCI/ADR-RES ovarian): > 100 µM | TGI (RPMI-8226 leukemia): 86.5 µM | TGI (TK-10 renal): > 100 µM | TGI (T-47D breast): 85.9 µM | TGI (HOP-92 NSCLC): > 100 µM | TGI (MOLT-4 leukemia): > 100 µM | TGI (UO-31 renal): 44.7 µM | TGI (SF-539 CNS): > 100 µM | TGI (OVCAR-8 ovarian): > 100 µM | TGI (LOX IMVI melanoma): 57 µM | TGI (COLO 205 colon): > 100 µM | TGI (U251 CNS): > 100 µM

C/C=C1\C(=O)O[C@H]2C/C(C)=C/CC/C(C)=C/CC[C@@]3(C)O[C@@H]3C[C@@H]12
TGI (SF-295 CNS): > 100 µM | TGI (HL-60(TB) leukemia): > 100 µM | TGI (SK-MEL-5 melanoma): > 100 µM | TGI (SR leukemia): > 100 µM | TGI (CCRF-CEM leukemia): > 100 µM | TGI (HCT-15 colon): > 100 µM | TGI (A498 renal): > 100 µM | TGI (SK-MEL-2 melanoma): > 100 µM | TGI (RXF 393 renal): > 100 µM | TGI (UACC-62 melanoma): > 100 µM | TGI (BT-549 breast): > 100 µM | TGI (MDA-MB-231 breast): > 100 µM | TGI (HT29 colon): > 100 µM | TGI (HOP-62 NSCLC): > 100 µM | TGI (IGROV1 ovarian): > 100 µM | TGI (DU-145 prostate): > 100 µM | TGI (MALME-3M melanoma): > 100 µM | TGI (SK-OV-3 ovarian): > 100 µM | TGI (ACHN renal): > 100 µM | TGI (K-562 leukemia): > 100 µM | TGI (OVCAR-5 ovarian): > 100 µM | TGI (OVCAR-3 ovarian): > 100 µM | TGI (M14 melanoma): > 100 µM | TGI (SNB-19 CNS): > 100 µM | TGI (SNB-75 CNS): > 100 µM | TGI (MCF7 breast): > 100 µM | TGI (SN12C renal): > 100 µM | TGI (SK-MEL-28 melanoma): > 100 µM | TGI (PC-3 prostate): > 100 µM | TGI (MDA-MB-435): > 100 µM | TGI (786-0 renal): > 100 µM | TGI (SF-268 CNS): > 100 µM | TGI (HCC-2998 colon): > 100 µM | TGI (A549 NSCLC): > 100 µM | TGI (CAKI-1 renal): > 100 µM | TGI (EKVX NSCLC): > 100 µM | TGI (UACC-257 melanoma): > 100 µM | TGI (HCT-116 colon): > 100 µM | TGI (MDA-N): > 100 µM | TGI (NCI-H460 lung): > 100 µM | TGI (SW-620 colon): > 100 µM | TGI (NCI/ADR-RES ovarian): > 100 µM | TGI (KM12 colon): > 100 µM | TGI (RPMI-8226 leukemia): > 100 µM | TGI (TK-10 renal): > 100 µM | TGI (T-47D breast): > 100 µM | TGI (MOLT-4 leukemia): > 100 µM | TGI (UO-31 renal): > 100 µM | TGI (SF-539 CNS): > 100 µM | TGI (OVCAR-8 ovarian): > 100 µM | TGI (COLO 205 colon): > 100 µM | TGI (U251 CNS): > 100 µM

CCOC(=O)/C(=C\NCc1ccc2c(c1)OCO2)c1nc2ccccc2[nH]1
TGI (SF-295 CNS): > 100 µM | TGI (HL-60(TB) leukemia): > 100 µM | TGI (SK-MEL-5 melanoma): > 100 µM | TGI (SR leukemia): > 100 µM | TGI (CCRF-CEM leukemia): > 100 µM | TGI (HCT-15 colon): > 100 µM | TGI (A498 renal): > 100 µM | TGI (SK-MEL-2 melanoma): > 100 µM | TGI (RXF 393 renal): > 100 µM | TGI (UACC-62 melanoma): > 100 µM | TGI (BT-549 breast): > 100 µM | TGI (NCI-H23 lung): > 100 µM | TGI (HT29 colon): > 100 µM | TGI (HOP-62 NSCLC): > 100 µM | TGI (IGROV1 ovarian): > 100 µM | TGI (DU-145 prostate): > 100 µM | TGI (MALME-3M melanoma): > 100 µM | TGI (SK-OV-3 ovarian): > 100 µM | TGI (ACHN renal): > 100 µM | TGI (K-562 leukemia): > 100 µM | TGI (OVCAR-5 ovarian): > 100 µM | TGI (NCI-H226 lung): > 100 µM | TGI (OVCAR-3 ovarian): > 100 µM | TGI (HS 578T breast): > 100 µM | TGI (OVCAR-4 ovarian): > 100 µM | TGI (M14 melanoma): > 100 µM | TGI (SNB-19 CNS): > 100 µM | TGI (SNB-75 CNS): > 100 µM | TGI (MCF7 breast): > 100 µM | TGI (NCI-H522 lung): > 100 µM | TGI (SN12C renal): > 100 µM | TGI (SK-MEL-28 melanoma): > 100 µM | TGI (PC-3 prostate): > 100 µM | TGI (MDA-MB-435): > 100 µM | TGI (786-0 renal): > 100 µM | TGI (SF-268 CNS): > 100 µM | TGI (HCC-2998 colon): > 100 µM | TGI (A549 NSCLC): > 100 µM | TGI (CAKI-1 renal): > 100 µM | TGI (EKVX NSCLC): > 100 µM | TGI (UACC-257 melanoma): > 100 µM | TGI (HCT-116 colon): > 100 µM | TGI (MDA-N): > 100 µM | TGI (NCI-H460 lung): > 100 µM | TGI (SW-620 colon): > 100 µM | TGI (NCI/ADR-RES ovarian): > 100 µM | TGI (KM12 colon): > 100 µM | TGI (RPMI-8226 leukemia): > 100 µM | TGI (TK-10 renal): 60 µM | TGI (T-47D breast): > 100 µM | TGI (HOP-92 NSCLC): > 100 µM | TGI (MOLT-4 leukemia): > 100 µM | TGI (UO-31 renal): > 100 µM | TGI (SF-539 CNS): > 100 µM | TGI (OVCAR-8 ovarian): > 100 µM | TGI (LOX IMVI melanoma): > 100 µM | TGI (COLO 205 colon): > 100 µM | TGI (U251 CNS): > 100 µM
